Results as given in patent US20220105051A1, “COMPOUNDS FOR INCREASING MHC-I EXPRESSION AND MODULATING HISTONE DEACETYLASE ACTIVITY” (Cava Healthcare Inc., priority 2019, published 2022).
“Also recorded” adds a separate entry of the source.

Key:
HDAC11 = biological target: T1, HDAC11 (Homo sapiens, UniProt Q96DB2); test: Individualized HDAC assay, HDAC11 (HDAC-Glo); format: biochemical; conditions: purified enzyme, 5 to 0.02 μM
T1 construct: purchased BPS Biosciences
T1 sequence (Q96DB2 1-347): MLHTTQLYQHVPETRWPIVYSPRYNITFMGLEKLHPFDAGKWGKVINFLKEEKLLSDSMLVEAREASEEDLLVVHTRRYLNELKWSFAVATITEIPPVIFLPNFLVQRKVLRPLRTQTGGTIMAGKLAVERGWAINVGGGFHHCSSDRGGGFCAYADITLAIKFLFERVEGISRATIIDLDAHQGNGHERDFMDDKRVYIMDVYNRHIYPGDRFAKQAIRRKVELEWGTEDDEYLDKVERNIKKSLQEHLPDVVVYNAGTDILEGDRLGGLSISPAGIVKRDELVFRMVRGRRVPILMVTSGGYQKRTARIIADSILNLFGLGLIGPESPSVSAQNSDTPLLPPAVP
Protocol: The activity of the curcuphenol analogues was assessed with purified HDAC enzymes from all classes I, II, and IV, as well as a select member of HDAC class III (SIRT1). HDACs 1-9 and SIRT1 were evaluated using HDAC Fluorogenic Assay Kits (BPS Biosciences). All assays were completed in black-sided clear-bottom 96 well plates (PerkinElmer), and all treatments were plated in triplicates. Treatment started at 5 μM and was two-fold diluted to a concentration 0.02 μM. The assays were measured using the Synergy HI hybrid reader (BioTek) and Gen5 software (BioTek), excitation was set to 360 nm and detection was measured at 450 nm with a gain of 100. Alternatively HDAC 10 and 11 (BPS Biosciences) were optimized for HDAC concentration using the HDAC-Glo™ I/II Assay and Screening System (Promega). Following optimization each HDAC was run following the Promega protocol in black-sided clear-bottomed 96 well plates in triplicates with same treatments listed above (PerkinElmer). Luminescence was read 30 minutes after HDAC-Glo™I/II reagent was added using the Synergy HI hybrid reader (BioTek) and Gen5 software (Bio-Tek). […] To calculate percent activity, the average of blank wells was subtracted from all treatment groups. The relative mean of activity of the HDAC being measured was determined and all wells that received treatment were divided this average, to give a percentage of activity.
To evaluate the effect of the compounds on specific HDACs, their activity was assessed with purified HDAC enzymes from all classes I, II, and IV, as well as a select member of HDAC class III (SIRT1). HDACs 1-9 and SIRT1 were evaluated using HDAC Fluorogenic Assay Kits (BPS Biosciences) following the manufacturer's recommendations. Compound treatment started at 5 μM and was two-fold diluted to a concentration 0.02 μM. […] The assays were measured using the Synergy HI hybrid reader (BioTek) and Gen5 software (Bio-Tek). […] To calculate the fold change in HDAC activity, the values from each treated well were divided by the relative mean of activity of the specific HDAC being measured.

class I/II HDACs = test: HDAC-Glo I/II Assay in A9 cells; format: cell-based, murine; conditions: for HDAC activity at the lowest concentrations: 1 nM-100 nM; for class I/II HDAC activity: 1 nM-1 μM; for HDAC activity at higher concentrations: up to 1 uM
Protocol: Compounds P02-113 and P03-97-1 were analyzed for their effect on histone deacetylase activity in the A9 cell line, using the HDAC-Glo™ I/II Assay and Screening System (Promega). The linear range was established for the A9 cells in a black-walled, clear-bottomed 96 well plate (PerkinElmer). Cells were diluted to 10^5 cells/mL and serial diluted by two fold, to a final concentration of 98 cells/ml. All dilutions were plated in triplicates in a volume of 100 ul per well. Cells were left overnight at 37° C. for 24 hours before addition of HDAC class I/II reagent. Luminescence was read after 30 minute incubation with HDAC class I/II reagent. After determination of an optimal cell density of 30,000 cells/well, cells were plated in 96 well plate and left for 24 hours at 37° C. Media was used as a blank control, as well a positive control was included consisting of HeLa cells provided in the HDAC assay kit. […] HDAC class I/II reagent was then added and incubated for 30 minutes before luminescence was measured using the Infinite M200 (Tecan) and i-control software (Tecan).
HDAC assays. To assess the effect of the compounds on the relative activity of histone deacetylase (HDAC) class I and II enzymes in the A9 cell line, we used the HDAC-Glo™ I/II Assay and Screening System (Promega). The linear range was established for the A9 cells following the manufacturer's instructions. Thirty thousand cells per well were plated in clear-bottom 96-well plates (Perkin Elmer) and plates were incubated at 37° C. […] Cell culture media was used as a blank control and HeLa cells provided in the HDAC assay kit were used as a positive control. HDAC class I/II reagent was then added and incubated for 30 minutes before luminescence was measured using the Infinite M200 (Tecan) and i-control software (Tecan).

Row | Compound | HDAC11 activity (HDAC11) | concentration of peak in HDAC activity (class I/II HDACs) | HDAC activity at the lowest concentrations (class I/II HDACs) | class I/II HDAC activity (class I/II HDACs) | HDAC activity at higher concentrations (class I/II HDACs) | HDAC11 activity (HDAC11; listed as PO-3-97-1)
1 | CC(C)=CCCCc1ccc(C)cc1O [P02-113] | unaffected; also recorded: no effect was observed; also recorded: no change in activity | around 180 nM | induction of HDAC activity | increase in class I/II HDAC activity | started to reduce it effect at higher concentrations; also recorded: started to reduce the effect at higher concentrations | –
2 | COc1ccc(C(C)CCC=C(C)C)c(O)c1 (centres unmarked) [P03-97-1] | unaffected; also recorded: no change in activity | around 180 nM | induction of HDAC activity | increase in class I/II HDAC activity | maintained peak levels of HDAC activity | no effect was observed
